{"source": "patent US20230053688A1", "about": "“METHODS TO ALTER LATENCY IN EBV+ MALIGNANCIES” (Cornell University, priority 2020, published 2023)", "key": {"in vitro [1]": {"experiment": "in vitro", "conditions": "human, Rael cells"}, "Rael": {"test_system": "Rael", "experiment": "Cell viability, CellTiter-Glo", "conditions": "read-out: 48 Hour IC50"}, "[2]": {"experiment": "Cell viability, CellTiter-Glo", "conditions": "human, Kem I cells"}, "Kem I": {"test_system": "Kem I", "experiment": "Cell viability, CellTiter-Glo", "conditions": "48 h, read-out: 48 Hour IC50"}, "BL cells": {"test_system": "BL cells", "experiment": "Cell viability, CellTiter-Glo, statements for the BL cell panel"}, "[3]": {"test_system": "LMP1 and EBNA3C proteins in BL cells", "experiment": "Immunoblot for viral proteins in BL cells", "type": "cell-based, EBV", "conditions": "48 hours", "method": "Immunoblot was performed with the standard procedure using the following antibodies: β-actin (GeneTex), BZLF1 (Santa Cruz), EBNA1 (Santa Cruz), EBNA2 (AbCam), EBNA3C (gift from Benjamin Gewurz), GAPDH (GeneTex), and LMP1 (AbCam).\nSince decitabine and 5-azacytadine were the top hits on the epigenetic screen, the effect of these agents on latency II/III transcript and protein expression was investigated as well as the dose-response in a panel of BL cell lines. BL cells were treated with decitabine or 5-azacytidine over a range of doses. Viral antigen expression was evaluated by qRT-PCR, immunoblot, and immunohistochemistry. […] This was associated with upregulation of LMP1 and EBNA3C proteins (FIG. 2B)."}, "Mutu I cells": {"test_system": "Mutu I cells", "experiment": "Cr51 release assay with EBV-CTLs", "type": "cell-based", "conditions": "Mutu I cells treated at 250 nM for 72 hours, 25:1 effector to target ratio"}, "Mutu I": {"test_system": "Mutu I", "experiment": "Cell viability, CellTiter-Glo", "conditions": "read-out: 48 Hour IC50"}, "in vitro [4]": {"experiment": "in vitro", "conditions": "human, Mutu I cells"}, "Mutu I xenografts": {"test_system": "Mutu I xenografts", "experiment": "BL xenograft, immunohistochemistry of tumors for viral antigens", "type": "in vivo, mice", "method": "(§1) Cell blocks were generated from cell lines in suspension by fixation in 10% formalin. Immunohistochemistry on cell blocks and mouse tumors was performed with the following antibodies: EBNA2 (abcam #ab90543), LMP1 (Dako #M0897), BZLF1 (Santa Cruz #SC-53904), CD8 (Leica #PA0183), PD-1 (Dako #M3653), PD-L1 (Cell Marque #315M-98). The Halo® image analysis software program (Indica Labs) was used to quantify immunohistochemical stains.\n(§2) To evaluate the effect of decitabine on viral antigen expression in-vivo, we generated Mutu I, Kem I, and Rael xenografts. Upon engraftment, mice were treated with a 7-day course of decitabine (0.5 mg/kg or 1 mg/kg daily) or vehicle control. After treatment tumors were evaluated by immunohistochemistry. Vehicle treated mice had minimal or no expression of EBNA2 and LMP1 (FIGS. 3A-B). […] LMP1 expression was increased in Kem xenografts (p=0.04, FIG. 3B).\n(§3) In addition to modulating latent gene expression, 5-azacytidine is known to activate lytic programming in EBV (Bhende, Seaman et al. 2004, Chan, Tao et al. 2004, Bergbauer, Kalla et al. 2010, Kalla, Gobel et al. 2012, Woellmer, Arteaga-Salas et al. 2012). Upon exposure to 5-azacytidine, the Rael cell line generates lytic and latent antigens but in distinct cell populations (Masucci, Contreras-Salazar et al. 1989). To determine if the lytic program was being activated after exposure to decitabine qRT-PCR was performed for BZLF1, the gene responsible for activating early lytic genes in Rael, Mutu I, and Kem I cells. […] In the xenograft models, BLZF1 was evaluated by IHC."}, "Kem I xenografts": {"test_system": "Kem I xenografts", "experiment": "BL xenograft, immunohistochemistry of tumors for viral antigens", "type": "in vivo, mice", "method": "as §1, §2, §3"}, "[5]": {"test_system": "first 13 kB of the EBV genome in Kem I, Rael, and Mutu I cells", "experiment": "Methyl-Capture sequencing of cell lines", "type": "cell-based"}, "[6]": {"test_system": "LMP1 and Cp transcripts in Kem I, Mutu I, and Rael cell lines", "type": "cell-based, EBV"}, "[7]": {"test_system": "subcutaneous xenografts of Rael cells", "type": "in vivo, NSG mice"}, "Rael xenografts": {"test_system": "Rael xenografts", "experiment": "BL xenograft, immunohistochemistry of tumors for viral antigens", "type": "in vivo, mice", "method": "as §1, §2\nIf induction of immunogenic antigens were to be used as therapeutic approach in EBV+ lymphomas, it would be important to ensure that the induction persists after removal of drug to allow time for an adequate T-cell response. The durability of latency III induction was evaluated by treating cell lines with 250 nM of decitabine for 3 days and then evaluating LMP1 and Cp promoter expression after washout of the drug. […] Rael xenografts were also evaluated for durability of induction in-vivo. […] Mice observed at later timepoints continued to express EBNA2 with some areas of tumor remaining EBNA2 positive as late as 63 days post-treatment (FIG. 4C).\nIn addition to modulating latent gene expression, 5-azacytidine is known to activate lytic programming in EBV (Bhende, Seaman et al. 2004, Chan, Tao et al. 2004, Bergbauer, Kalla et al. 2010, Kalla, Gobel et al. 2012, Woellmer, Arteaga-Salas et al. 2012)."}, "[8]": {"test_system": "EBV genome in Kem I, Rael, and Mutu I cells", "experiment": "Quantitative DNA methylation analysis using MassARRAY EpiTYPER", "type": "cell-based", "conditions": "48 hours, all three latency I cell lines, including Cp promoter and LMP1/2 loci"}, "[9]": {"test_system": "EBNA2 and LMP1 in Mutu I cells", "experiment": "Immunohistochemistry on cell blocks with HALO quantification", "type": "cell-based, EBV", "conditions": "decitabine at 500 nM, 48 hours", "method": "as §1\n(§4) Next it was determined the percentage of cells that convert to expressing latency […] antigens after treatment with decitabine or 5-azacytadine. To do this, EBV antigen expression at the single-cell level was evaluated by immunohistochemistry (IHC) from cell blocks. Cells were treated with 5-azacytidine, decitabine, or vehicle control. Cell blocks were then evaluated by IHC for LMP1 and EBNA2. The percentage of positive cells was quantified with HALO image analysis. […] 5-azacytidine induced a more modest expression of EBNA2 and LMP1 across the three cell lines (FIGS. 2E-F). Based on these observations, decitabine was further investigated as a potential agent to induce expression of immunogenic viral antigens in latency I tumors."}, "[10]": {"test_system": "EBNA2 and LMP1 in Rael cells", "experiment": "Immunohistochemistry on cell blocks with HALO quantification", "type": "cell-based, EBV", "conditions": "decitabine at 500 nM, 48 hours", "method": "as §1, §4"}, "[11]": {"test_system": "EBNA2 and LMP1 in Kem I cells", "experiment": "Immunohistochemistry on cell blocks with HALO quantification", "type": "cell-based, EBV", "conditions": "decitabine at 500 nM, 48 hours", "method": "as §1, §4"}, "Rael cells": {"test_system": "Rael cells", "experiment": "Cr51 release assay with EBV-CTLs", "type": "cell-based", "conditions": "Rael cells treated at 250 nM for 72 hours, 25:1 effector to target ratio"}, "[12]": {"test_system": "BZLF1 in Rael, Mutu I, and Kem I cells", "experiment": "qRT-PCR for BZLF1 (lytic induction)", "type": "cell-based, EBV", "conditions": "all three cell lines"}}, "note": "pIC50: −log10 of the molar value."}
{"smiles": "Nc1ncn([C@H]2C[C@H](O)[C@@H](CO)O2)c(=O)n1", "note": "[decitabine, 5-aza-2′-deoxycytidine]", "values": [{"measurement": "viability", "setting": "in vitro [1]", "result": 102, "unit": "%"}, {"measurement": "pIC50", "setting": "Rael", "result": "< 5.30"}, {"measurement": "viability", "setting": "[2]", "result": 128, "unit": "%"}, {"measurement": "pIC50", "setting": "Kem I", "result": "< 5.30"}, {"measurement": "pIC50", "setting": "BL cells", "result": "< 5.30"}, {"measurement": "LMP1 and EBNA3C proteins (immunoblot)", "setting": "[3]", "result": "upregulation"}, {"measurement": "% lysis by EBNA3A reactive EBV-CTLs", "setting": "Mutu I cells", "result": 16.17, "unit": "%"}, {"measurement": "% lysis by LMP1-reactive EBV-CTLs", "setting": "Mutu I cells", "result": 74.11, "unit": "%"}, {"measurement": "pIC50", "setting": "Mutu I", "result": "< 5.30"}, {"measurement": "viability", "setting": "in vitro [4]", "result": 62, "unit": "%"}, {"measurement": "EBNA2 expression in tumors (IHC)", "setting": "Mutu I xenografts; 7-day course, 0.5 mg/kg or 1 mg/kg daily IP, p=0.044", "result": "upregulation was observed"}, {"measurement": "BZLF1 by IHC in tumors", "setting": "Mutu I xenografts; Mutu I xenograft, 7 days of treatment", "result": "induction was observed"}, {"measurement": "LMP1 expression in tumors (IHC)", "setting": "Kem I xenografts; 7-day course, 0.5 mg/kg or 1 mg/kg daily IP, p=0.04", "result": "increased"}, {"measurement": "BZLF1 by IHC in tumors", "setting": "Kem I xenografts; Kem I xenograft, 7 days of treatment", "result": "minimal or no induction"}, {"measurement": "methylation across the covered areas (Methyl-Capture sequencing)", "setting": "[5]; after treatment, all three cell lines", "result": "global hypomethylation"}, {"measurement": "methylation after removal of drug (Methyl-Capture sequencing)", "setting": "[5]; drug 48 hours followed by 7-day washout", "result": "remained hypomethylated"}, {"measurement": "LMP1 and Cp expression by qRT-PCR after washout", "setting": "[6]; 250 nM for 3 days, then 1, 3, 5, and 7 days after washout", "result": "persists with minimal decrement"}, {"measurement": "lowest dose with dose dependent induction of LMP1 and Cp transcripts", "setting": "[6]; BL cells, 48 hours of treatment", "result": 25, "unit": "nM"}, {"measurement": "latent antigens EBNA2 and LMP1 in tumors", "setting": "[7]; daily for 7 days, 1 mg/kg", "result": "induction"}, {"measurement": "lytic protein BZLF1 in tumors", "setting": "[7]; daily for 7 days, 1 mg/kg", "result": "minimal change"}, {"measurement": "PD-L1 expression in tumors", "setting": "[7]; mouse, in vivo", "result": "did not increase"}, {"measurement": "EBNA2 expression in tumors (IHC)", "setting": "Rael xenografts; 7-day course, 0.5 mg/kg or 1 mg/kg daily IP, p=0.017", "result": "upregulation was observed"}, {"measurement": "BZLF1 by IHC in tumors", "setting": "Rael xenografts; Rael xenograft, 7 days of treatment", "result": "minimal or no induction"}, {"measurement": "latest time with areas of tumor remaining EBNA2 positive", "setting": "Rael xenografts; post-treatment", "result": 63, "unit": "days"}, {"measurement": "percentage of EBNA2 positive cells after discontinuation of drug", "setting": "Rael xenografts; tumors evaluated 4 days after a 7-day course", "result": "persistent induction with no decrement"}, {"measurement": "DNA methylation across the EBV viral genome (MassARRAY)", "setting": "[8]", "result": "loss of methylation"}, {"measurement": "percentage of EBNA2 positive cells", "setting": "[9]", "result": 28.3, "unit": "%"}, {"measurement": "percentage of LMP1 positive cells", "setting": "[9]", "result": 41.8, "unit": "%"}, {"measurement": "percentage of EBNA2 positive cells", "setting": "[10]", "result": 37.2, "unit": "%"}, {"measurement": "percentage of LMP1 positive cells", "setting": "[10]", "result": 27.4, "unit": "%"}, {"measurement": "percentage of EBNA2 positive cells", "setting": "[11]", "result": 57.8, "unit": "%"}, {"measurement": "percentage of LMP1 positive cells", "setting": "[11]", "result": 54.9, "unit": "%"}, {"measurement": "% lysis by EBNA3C reactive EBV-CTLs", "setting": "Rael cells", "result": 26.07, "unit": "%"}, {"measurement": "BZLF1 (qRT-PCR) over time after removal of drug", "setting": "[12]", "result": "decreased over time after removal of drug"}, {"measurement": "BZLF1 (qRT-PCR)", "setting": "[12]; after exposure for 72 hours", "result": "increase"}]}
